Each block holds one compound with its values, some of them ahead of it.
How the values were obtained:
human NAAA = biological target: T1, human NAAA (Homo sapiens, UniProt Q02083); assay: Fluorogenic h-NAAA assay; type: biochemical; conditions: for inhibition at […]: @ 2.5 μM; for inhibition at […] / inhibition at 50 µM: read-out: h-NAAA Fluorogenic assay % inhib.
T1 construct: made in house; host or cells: HEK293 cells, stably transfected; soluble lysosomal fraction used as enzyme source
T1 sequence (Q02083 29-359): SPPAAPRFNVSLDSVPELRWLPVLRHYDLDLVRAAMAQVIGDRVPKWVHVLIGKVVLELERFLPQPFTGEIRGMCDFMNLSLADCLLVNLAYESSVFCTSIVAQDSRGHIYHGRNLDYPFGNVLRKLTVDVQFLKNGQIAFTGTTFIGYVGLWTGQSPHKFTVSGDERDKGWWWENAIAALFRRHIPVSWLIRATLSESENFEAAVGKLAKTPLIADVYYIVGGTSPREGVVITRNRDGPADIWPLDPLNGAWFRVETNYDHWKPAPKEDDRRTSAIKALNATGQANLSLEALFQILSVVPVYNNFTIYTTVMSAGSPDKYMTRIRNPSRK
Protocol: Hek293 cells stably transfected with the human NAAA coding sequence cloned from a human spleen cDNA library were used as enzyme source. Recombinant HEK-hNAAA pellets were resuspended in homogenizing buffer, and sonicated. Samples were centrifuged at 800×g for 15 min at 4° C. and the resultant supernatants were then ultracentrifuged at 12,000×g for 30 min at 4° C. The pellets were resuspended in PBS pH 7.4 on ice and subjected to a freeze/thaw cycle at −80° C. The suspension was finally centrifuged at 105,000×g for 1 h at 4° C. Protein concentration was measured and samples aliquoted and stored at −80° C. until use.
The assay was run in Optiplate 96-wells black plates, in a total reaction volume of 200 μL. NAAA protein preparation (4.0 μg) was pre-incubated for 10 min with various concentrations of test compounds or vehicle control (5% DMSO) in 100 mM citrate/phosphate buffer (pH 4.5) containing 3.0 mM DTT, 0.1% Triton X-100, 0.05% BSA, 150 mM NaCl. N-(4-methyl-2-oxo-chromen-7-yl)-hexadecanamide was used as a substrate (5.0 μM) and the reaction carried over for 30 min at 37° C. The samples were then read in a Perkin Elmer Envision plate reader using an excitation wavelength of 360 nm and emission 460 nm. IC50 values were calculated by non-linear regression analysis of log [concentration]/inhibition curves using GraphPad Prism 5 (GraphPad Software Inc., CA—USA) applying a standard slope curve fitting.

r-NAAA = biological target: T2, r-NAAA (Rattus norvegicus, UniProt Q5KTC7); assay: UPLC/MS r-NAAA assay; type: biochemical
T2 construct: Lysosomal NAAA protein preparation was obtained by homogenizing male Sprague-Dawley rat lungs; tissue Charles River (animals); host or cells: male Sprague-Dawley rat lung, soluble lysosomal fraction
T2 sequence (Q5KTC7 34-362): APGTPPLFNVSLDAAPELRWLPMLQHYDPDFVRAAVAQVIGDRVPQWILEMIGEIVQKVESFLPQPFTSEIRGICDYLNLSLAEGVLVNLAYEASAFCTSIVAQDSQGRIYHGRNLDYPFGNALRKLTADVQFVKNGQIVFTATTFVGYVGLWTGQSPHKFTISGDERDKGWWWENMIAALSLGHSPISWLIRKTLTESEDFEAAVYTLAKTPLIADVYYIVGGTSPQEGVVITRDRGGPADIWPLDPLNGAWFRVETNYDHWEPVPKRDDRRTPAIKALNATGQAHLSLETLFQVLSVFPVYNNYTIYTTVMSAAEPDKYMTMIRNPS
Protocol: Lysosomal NAAA protein preparation was obtained by homogenizing male Sprague-Dawley rat lungs (Charles River) in 20 mM Tris-HCl buffer pH 7.4 containing 0.32M sucrose. […] Supernatants were then centrifuged at 12,000 xg for 30 min at 4° C. Pellets were then resuspended in PBS pH 7.4 and subjected to a freeze/thaw cycle at −80° C. The suspension was finally centrifuged at 105,000×g for 1 h at 4° C. The supernatant was then used in the enzymatic assay.
NAAA protein preparation was pre-incubated with various concentrations of test compounds or vehicle control in 100 mM NaH2PO4/Citrate buffer, 1% Triton-X, 3 mM DTT (pH 4.5) for 30 min at 37° C. Samples were then incubated with heptadecenoylethanolamide (50 μM, Avanti Polar Lipids) at 37° C. for 30 min. The reaction was terminated by addition of cold methanol containing heptadecanoic acid (NuCheck Prep) as internal standard. Samples were then analyzed by UPLC/MS (Acquity, Waters). […] The column temperature was 40° C. Electrospray ionization was in the negative mode, capillary voltage was 0.5 kV, cone voltage was […], desolvation temperature was 500° C. N2 was used as drying gas at a flow rate of 1000 L/hour and a temperature of 500° C. […] Calibration curves were generated using commercial heptadecenoic acid (NuCheck Prep) Inhibition of NAAA activity was calculated as reduction of heptadecenoic acid in the samples compared to vehicle controls. IC50 values were calculated by non-linear regression analysis of log [concentration]/inhibition curves using GraphPad Prism 5 (GraphPad Software Inc., CA—USA) applying a standard slope curve fitting.

Structure (SMILES): O=C(N[C@H]1CNC1=O)OCCCc1ccccc1 [Example 27, 3-Phenylpropyl-N-[(3S)-2-oxoazetidin-3-yl]-carbamate]
- inhibition at […] (human NAAA): 45%

Structure (SMILES): O=C(N[C@H]1CNC1=O)OCCc1ccccc1 [Example 28, Phenethyl-N-[(3S)-2-oxoazetidin-3-yl]-carbamate]
- inhibition at 50 µM (human NAAA): 65%

Structure (SMILES): O=C(N[C@H]1CNC1=O)OCCCCc1cccnc1 [Example 47, 4-(3-Pyridyl)-butyl-N-[(3S)-2-oxoazetidin-3-yl]-carbamate]
- inhibition at 50 µM (human NAAA): 55%

Structure (SMILES): O=C(N[C@H]1CNC1=O)OCCCOC1CCCCC1 [Example 50, 3-(Cyclohexoxy)-propyl-N-[(3S)-2-oxoazetidin-3-yl]-carbamate]
- inhibition at […] (human NAAA): 25%

Structure (SMILES): O=C(N[C@H]1CNC1=O)OCc1ccc(C(=O)N2CCOCC2)cc1 [Example 53, [4-(Morpholine-4-carbonyl)-phenyl]-methyl-N-[(3S)-2-oxoazetidin-3-yl]-carbamate]
- inhibition at 50 µM (human NAAA): 55%

Structure (SMILES): O=C(N[C@H]1CNC1=O)OCc1ccc(-c2nc3ccccc3o2)cc1 [Example 54, [4-(1,3-Benzoxazol-2-yl)-phenyl]-methyl-N-[(3S)-2-oxoazetidin-3-yl]-carbamate]
- IC50 (human NAAA): 675 nM

Structure (SMILES): O=C(N[C@H]1CNC1=O)OCc1ccc(-c2ccccc2)c(F)c1 [Example 60, (3-Fluoro-4-phenyl-phenyl)-methyl-N-[(3S)-2-oxoazetidin-3-yl]-carbamate]
- IC50 (human NAAA): 237 nM

Structure (SMILES): O=C(N[C@H]1CNC1=O)OCc1ccc(-c2ccccc2)nc1 [Example 67, (6-Phenyl-3-pyridyl)-methyl-N-[(3S)-2-oxoazetidin-3-yl]-carbamate]
- inhibition at […] (human NAAA): 60%

Structure (SMILES): O=C(N[C@H]1CNC1=O)OCc1ccc(C(=O)NC2CCCCC2)cc1 [Example 68, [4-(Cyclohexylcarbamoyl)-phenyl]-methyl-N-[(3S)-2-oxoazetidin-3-yl]-carbamate]
- inhibition at […] (human NAAA): 18%

Structure (SMILES): O=C(N[C@H]1CNC1=O)OCc1ccc(C(=O)N2CCCCC2)cc1 [Example 69, [4-(Piperidine-1-carbonyl)-phenyl]-methyl-N-[(3S)-2-oxoazetidin-3-yl]-carbamate]
- inhibition at […] (human NAAA): 12%

Structure (SMILES): O=C(N[C@H]1CNC1=O)OCc1ccc(C(=O)NCc2ccccc2)cc1 [Example 70, [4-(Benzylcarbamoyl)-phenyl]-methyl-N-[(3S)-2-oxoazetidin-3-yl]-carbamate]
- inhibition at […] (human NAAA): 40%

Structure (SMILES): C[C@H]1NC(=O)[C@@H]1NC(=O)OCc1ccc(-c2ccccc2)cc1 [Example 81, (4-Phenylphenyl)-methyl-N-[(2R,3R)-2-methyl-4-oxo-azetidin-3-yl]-carbamate]
- r-NAAA UPLC/MS assay (n.a.) (r-NAAA; @100 μM): n.a. (n.a. = <10% inhib. @100 μM)

Structure (SMILES): C[C@@H]1NC(=O)[C@@H]1NC(=O)OCc1ccc(-c2ccccc2)cc1 [Example 84, (4-Phenylphenyl)-methyl-N-[(2S,3R)-2-methyl-4-oxo-azetidin-3-yl]-carbamate]
- inhibition at […] (human NAAA): 18%

Structure (SMILES): CC1(C)NC(=O)[C@H]1NC(=O)OCc1ccc(-c2ccccc2)cc1 [Example 87, (4-Phenylphenyl)-methyl-N-[(3S)-2,2-dimethyl-4-oxo-azetidin-3-yl]-carbamate]
- r-NAAA UPLC/MS assay (n.a.) (r-NAAA; @100 μM): n.a. (n.a. = <10% inhib. @100 μM)

Structure (SMILES): CC1(C)NC(=O)[C@H]1NC(=O)OCc1ccc(C2CCCCC2)cc1 [Example 88, (4-Cyclohexylphenyl)-methyl-N-[(3S)-2,2-dimethyl-4-oxo-azetidin-3-yl]-carbamate]
- r-NAAA UPLC/MS assay (n.a.) (r-NAAA; @100 μM): n.a. (n.a. = <10% inhib. @100 μM)

Structure (SMILES): CC1(C)NC(=O)[C@@H]1NC(=O)OCc1ccc(-c2ccccc2)cc1 [Example 90, (4-Phenylphenyl)-methyl-N-[(3R)-2,2-dimethyl-4-oxo-azetidin-3-yl]-carbamate]
- r-NAAA UPLC/MS assay (n.a.) (r-NAAA; @100 μM): n.a. (n.a. = <10% inhib. @100 μM)

Structure (SMILES): CC1(C)NC(=O)[C@@H]1NC(=O)OCc1ccc(C2CCCCC2)cc1 [Example 91, (4-Cyclohexylphenyl)-methyl-N-[(3R)-2,2-dimethyl-4-oxo-azetidin-3-yl]-carbamate]
- r-NAAA UPLC/MS assay (n.a.) (r-NAAA; @100 μM): n.a. (n.a. = <10% inhib. @100 μM)

Structure (SMILES): O=C(N[C@H]1CNC1=O)OCc1cnc(-c2ccccc2)nc1 [Example 98, (2-Phenylpyrimidin-5-yl)-methyl-N-[(3S)-2-oxoazetidin-3-yl]-carbamate]
- inhibition at […] (human NAAA): 26%

Structure (SMILES): O=C(N[C@H]1CNC1=O)OCc1ccc(I)cc1 [Example 101, (4-Iodophenyl)-methyl-N-[(3S)-2-oxoazetidin-3-yl]-carbamate]
- inhibition at […] (human NAAA): 95%

Next, values leading:

- inhibition at […] (human NAAA): 95%
Structure (SMILES): O=C(N[C@H]1CNC1=O)OCc1ccc(OC2CC3CCC2C3)cc1 (mixture of isomers) [Example 102, 4-[(1R,2R,4S)- and (1S,2S,4R)-Norbornan-2-yl]-oxyphenyl]-methyl-N-[(3S)-2-oxoazetidin-3-yl]-carbamate]

- IC50 (human NAAA): 365 nM
Structure (SMILES): O=C(N[C@H]1CNC1=O)OCc1ccc(-c2ccccc2F)cc1 [Example 71, [4-(2-Fluorophenyl)-phenyl]-methyl-N-[(3S)-2-oxoazetidin-3-yl]-carbamate]

- IC50 (r-NAAA): 21500 nM
Structure (SMILES): C[C@H]1NC(=O)[C@@H]1NC(=O)OCCCCC1CCCCC1 [Example 80, 4-Cyclohexylbutyl-N-[(2R,3R)-2-methyl-4-oxo-azetidin-3-yl]-carbamate]

- IC50 (r-NAAA): 5100 nM
Structure (SMILES): C[C@H]1NC(=O)[C@@H]1NC(=O)OCc1ccc(C2CCCCC2)cc1 [Example 82, (4-Cyclohexylphenyl)-methyl-N-[(2R,3R)-2-methyl-4-oxo-azetidin-3-yl]-carbamate]

- IC50 (r-NAAA): 4700 nM
Structure (SMILES): C[C@@H]1NC(=O)[C@@H]1NC(=O)OCCCCC1CCCCC1 [Example 83, 4-Cyclohexylbutyl-N-[(2S,3R)-2-methyl-4-oxo-azetidin-3-yl]-carbamate]

- IC50 (human NAAA): 619 nM
Structure (SMILES): C[C@@H]1NC(=O)[C@@H]1NC(=O)OCc1ccc(C2CCCCC2)cc1 [Example 85, (4-Cyclohexylphenyl)-methyl-N-[(2S,3R)-2-methyl-4-oxo-azetidin-3-yl]-carbamate]

- inhibition at 100 µM (r-NAAA; @100 μM, read-out: r-NAAA UPLC/MS assay % inhib.): 18%
Structure (SMILES): CC1(C)NC(=O)[C@H]1NC(=O)OCCCCC1CCCCC1 [Example 86, 4-Cyclohexylbutyl-N-[(3S)-2,2-dimethyl-4-oxo-azetidin-3-yl]-carbamate]

- r-NAAA UPLC/MS assay (n.a.) (r-NAAA; @100 μM): n.a. (n.a. = <10% inhib. @100 μM)
Structure (SMILES): CC1(C)NC(=O)[C@@H]1NC(=O)OCCCCC1CCCCC1 [Example 89, 4-Cyclohexylbutyl-N-[(3R)-2,2-dimethyl-4-oxo-azetidin-3-yl]-carbamate]

- IC50 (human NAAA): 1230 nM
Structure (SMILES): Cc1ccc(COC(=O)N[C@H]2CNC2=O)cc1 [Example 94, p-Tolylmethyl-N-[(3S)-2-oxoazetidin-3-yl]-carbamate]

- inhibition at […] (human NAAA): 35%
Structure (SMILES): O=C(N[C@H]1CNC1=O)OCC1CCC(F)(F)CC1 [Example 99, (4,4-Difluorocyclohexyl)-methyl-N-[(3S)-2-oxoazetidin-3-yl]-carbamate]

- IC50 (human NAAA): 6 nM
Structure (SMILES): C#CCCCCCCCCCOC(=O)N[C@H]1CNC1=O [Example 103, Undec-10-ynyl-N-[(3S)-2-oxoazetidin-3-yl]-carbamate]

- IC50 (human NAAA): 6 nM
Structure (SMILES): CCC[C@H]1CC[C@H](COC(=O)N[C@H]2CNC2=O)CC1 [Example 104]

From patent publication US9828338B2, “Carbamate derivatives of lactam based N-acylethanolamine acid amidase (NAAA) inhibitors” (The Regents of the University of California, priority 2013, dated 2017)
